Experiments:
sodium channel = assay: Guanidine influx assay (14C-guanidine radiotracer flux, in vitro); format: cell-based, human or rat; settings: guanidine influx assay using a known cell line that expresses a sodium channel
How it was run: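 Sodium channel block is measured as reduced 14C-guanidine uptake in cells stably expressing human or rat channels, stimulated with aconitine. Potency is given as IC50 from a four-parameter curve.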

[1] = tested on: inactivated state of the channel of interest (sodium channel); assay: Electrophysiological assay (whole cell voltage clamp, in vitro); format: cell-based; settings: affinity for the inactivated state of the channel of interest
Description: Cells expressing the channel of interest are cultured in DMEM growth media (Gibco) with 0.5 mg/mL G418, +/−1% PSG, and 10% heat-inactivated fetal bovine serum at 37° C. and 5% CO2. For electrophysiological recordings, cells are plated on 10 mm dishes.
Whole cell recordings are examined by established methods of whole cell voltage clamp (Bean et al., op. cit.) using an Axopatch 200B amplifier and Clampex software (Axon Instruments, Union City, Calif.). All experiments are performed at ambient temperature. Electrodes are fire-polished to resistances of 2-4 Mohms Voltage errors and capacitance artifacts are minimized by series resistance compensation and capacitance compensation, respectively. Data are acquired at 40 kHz and filtered at 5 kHz. The external (bath) solution consists of: NaCl (140 mM), KCl (5 mM), CaCl2 (2 mM), MgCl2 (1 mM), HEPES (10 mM) at pH 7.4. The internal (pipette) solution consists of (in mM): NaCl (5), CaCl2 (0.1), MgCl2 (2), CsCl (10), CsF (120), HEPES (10), EGTA (10), at pH 7.2.
To estimate the steady-state affinity of compounds for the resting and inactivated state of the channel (Kr and Ki, respectively), 12.5 ms test pulses to depolarizing voltages from −60 to +90 mV from a holding potential of −120 m V is used to construct current-voltage relationships (I-V curves). A voltage near the peak of the IV-curve (−30 to 0 m V) is used as the test pulse throughout the remainder of the experiment. Steady-state inactivation (availability) curves are then constructed by measuring the current activated during a 8.75 ms test pulse following 1 second conditioning pulses to potentials ranging from −120 to −10 m V.
The steady-state voltage-dependence of binding of a compound to a sodium channel is determined by measuring the blockage of the ionic current at two holding potentials. Binding to rested-state channels is determined by using a holding potential of −120 mV, so that maximal availability is achieved. Binding to inactivated-state channels is evaluated at a holding potential such that only 10% of the channels are available to open. The membrane potential is held at this voltage for at least 10 seconds so that drug binding can equilibrate.
The apparent dissociation constant at each voltage is calculated with the equation:
[formula] where Kd is the dissociation constant (either Kr or Ki), and [Drug] is the concentration of the test compound.
The Example numbers provided in Table 3 correspond to the Examples herein: […]

CYP3A4 = CYP3A4 (Homo sapiens, UniProt P08684); assay: Cytochrome P450 (CYP450) Inhibition Assay, CYP3A4 (Vivid fluorescence, BOMCC substrate); settings: human, P450 Baculosomes (recombinant CYP3A4), probe BOMCC (Vivid substrate)
Sequence of CYP3A4 (P08684 whole entry): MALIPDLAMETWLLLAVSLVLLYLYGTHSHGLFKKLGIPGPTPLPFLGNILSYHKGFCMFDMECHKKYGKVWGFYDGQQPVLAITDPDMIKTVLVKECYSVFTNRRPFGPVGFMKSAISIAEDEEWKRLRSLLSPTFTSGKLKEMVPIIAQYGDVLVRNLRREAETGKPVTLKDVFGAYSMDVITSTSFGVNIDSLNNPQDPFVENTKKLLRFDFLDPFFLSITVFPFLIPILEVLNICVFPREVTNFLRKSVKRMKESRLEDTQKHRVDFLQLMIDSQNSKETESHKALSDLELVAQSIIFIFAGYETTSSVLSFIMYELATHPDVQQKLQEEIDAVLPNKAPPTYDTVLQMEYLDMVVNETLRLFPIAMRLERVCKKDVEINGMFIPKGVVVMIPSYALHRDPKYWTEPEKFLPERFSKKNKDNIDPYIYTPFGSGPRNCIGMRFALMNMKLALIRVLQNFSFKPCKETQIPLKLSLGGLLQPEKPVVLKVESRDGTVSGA

| IC50 (sodium channel; activity level class) | melting point | inhibition at 10 µM (CYP3A4) | IC50 (sodium channel) | SMILES | Ki [1] |
| --- | --- | --- | --- | --- | --- |
| 1 to 100 nM | 142 to 143 °C | < 50% |  | O=C1N(Cc2cccnc2)c2ccccc2C12COc1cc3c(cc12)OCCO3 (centres unmarked) [Example 1.2, 1-(pyridin-3-ylmethyl)-2,3-dihydrospiro[furo[2,3-g][1,4]benzodioxine-8,3′-indol]-2′(1′H)-one] | > 300 nM |
| 1 to 100 nM | 120 to 123 °C | < 50% |  | O=C1N(Cc2ccc3c(c2)OCCO3)c2ccccc2C12COc1cc3c(cc12)OCCO3 (centres unmarked) [Example 4.48, 1-(2,3-dihydro-1,4-benzodioxin-6-ylmethyl)-2,3-dihydrospiro[furo[2,3-g][1,4]benzodioxine-8,3′-indol]-2′(1′H)-one] | < 300 nM |
| 1 to 100 nM | 102 to 104 °C | < 50% |  | COc1ncc(CN2C(=O)[C@@]3(COc4cc5c(cc43)OCCO5)c3ccccc32)cn1 [Example 5.17, (8S)-1′-[(2-methoxypyrimidin-5-yl)methyl]-2,3-dihydrospiro[furo[2,3-g][1,4]benzodioxine-8,3′-indol]-2′(1′H)-one] | < 300 nM |
| 100 to 1000 nM | 256 to 258 °C | < 50% |  | O=C1N(Cc2ccc(O)cn2)c2ccccc2[C@]12COc1cc3c(cc12)OCCO3 [Example 1.13, (8S)-1′-[(5-hydroxypyridin-2-yl)methyl]-2,3-dihydrospiro[furo[2,3-g][1,4]benzodioxine-8,3′-indol]-2′(1′H)-one] | < 300 nM |
| 1 to 100 nM | 64 to 68 °C | > 50% |  | O=C1N(Cc2ccc(C(F)(F)F)o2)c2ccccc2[C@@]12COc1cc3c(cc12)OCCO3 [Example 4.49, (R)-1′-{[5-(trifluoromethyl)furan-2-yl]methyl}-2,3-dihydrospiro[furo[2,3-g][1,4]benzodioxine-8,3′-indol]-2′(1′H)-one] | < 300 nM |
| 1 to 100 nM | 210 to 212 °C | < 50% |  | O=C1N(Cc2ncccn2)c2ccccc2[C@]12COc1cc3c(cc12)OCCO3 [Example 5.18, (8S)-1′-(pyrimidin-2-ylmethyl)-2,3-dihydrospiro[furo[2,3-g][1,4]benzodioxine-8,3′-indol]-2′(1′H)-one] | < 300 nM |
| 1000 to 10000 nM | 154 to 156 °C | < 50% |  | O=C1N(Cc2ccccn2)c2ccccc2[C@@]12COc1cc3c(cc12)CCO3 [Example 5.4, (3R)-1-(pyridin-2-ylmethyl)-5,6-dihydrospiro[benzo[1,2-b:5,4-b′]difuran-3,3′-indol]-2′(1′H)-one] | > 300 nM |
| 1 to 100 nM | 129 to 130 °C | > 50% |  | CCCCCN1C(=O)C2(COc3cc4c(cc32)OCCO4)c2ccccc21 (centres unmarked) [Example 8.4, 1′-pentyl-2,3-dihydrospiro[furo[2,3-g][1,4]benzodioxine-8,3′-indol]-2′(1′H)-one] | < 300 nM |

Continued, compound first:

| SMILES | IC50 (sodium channel; activity level class) | melting point | inhibition at 10 µM (CYP3A4) | IC50 (sodium channel) | Ki [1] |
| --- | --- | --- | --- | --- | --- |
| O=C1N(Cc2ccc(C(F)(F)F)o2)c2ccccc2C12COc1cc3c(cc12)OCCCO3 (centres unmarked) [Example 4.54, 1-{[5-(trifluoromethyl)furan-2-yl]methyl}-3,4-dihydro-2H-spiro[furo[2,3-h][1,5]benzodioxepine-9,3′-indol]-2′(1′H)-one] | 100 to 1000 nM | 162 to 164 °C | > 50% |  | < 300 nM |
| O=C1N(C[C@@H]2COCCO2)c2ccccc2C12COc1cc3c(cc12)OCCCO3 (stereo partly drawn) [Example 8.12, 1′-[(2R)-1,4-dioxan-2-ylmethyl]-3,4-dihydro-2H-spiro[furo[2,3-h][1,5]benzodioxepine-9,3′-indol]-2′(1′H)-one] | 100 to 1000 nM | 144 to 147 °C | < 50% |  | > 300 nM |
| O=C1N(Cc2ccc(C(F)(F)F)o2)c2cc3c(cc2C12COc1cc4c(cc12)OCCO4)OCCO3 (centres unmarked) [Example 2.27, 6-((5-(trifluoromethyl)furan-2-yl)methyl)-2,3,3′,7′-tetrahydro-2′H-spiro[[1,4]dioxino[2,3-f]indole-8,8′-benzofuro[5,6-b][1,4]dioxin]-7(6H)-one] | 100 to 1000 nM | 176 to 178 °C | > 50% |  | < 300 nM |
| O=C1Nc2ccccc2C12COc1ccc3nonc3c12 (centres unmarked) [Example 3.41, spiro[furo[3,2-e][2,1,3]benzoxadiazole-8,3′-indol]-2′(1′H)-one] | 1000 to 10000 nM | > 220 °C | < 50% |  | > 300 nM |
| O=C1N(C[C@H]2COCCO2)c2ccccc2[C@]12COc1cc3c(cc12)OCCO3 [Example 8.7, (8S)-1′-[(2S)-1,4-dioxan-2-ylmethyl]-2,3-dihydrospiro[furo[2,3-g][1,4]benzodioxine-8,3′-indol]-2′(1′H)-one] | 1 to 100 nM | 198 to 200 °C |  |  | > 300 nM |
| O=C1N(C[C@H]2COCCO2)c2ccccc2[C@@]12COc1cc3c(cc12)OCCO3 [Example 8.6, (8R)-1′-[(2S)-1,4-dioxan-2-ylmethyl]-2,3-dihydrospiro[furo[2,3-g][1,4]benzodioxine-8,3′-indol]-2′(1′H)-one] | 1000 to 10000 nM | 207 to 209 °C | < 50% |  | > 300 nM |
| Cc1nc(-c2cccc(CN3C(=O)C4(COc5cc6c(cc54)CCO6)c4ccccc43)c2)no1 (centres unmarked) [Example 11.27, 1′-[3-(5-methyl-1,2,4-oxadiazol-3-yl)benzyl]-5,6-dihydrospiro[benzo[1,2-b:5,4-b′]difuran-3,3′-indol]-2′(1′H)-one] |  | 209 to 213 °C | > 50% | 1 to 100 nM | < 300 nM |
| O=C1Nc2cccc(-c3ccc(Oc4ccccc4)cc3)c2C12COc1cc3c(cc12)OCCO3 (centres unmarked) [Example 3.35, 4′-(4-phenoxyphenyl)-2,3-dihydrospiro[furo[2,3-g][1,4]benzodioxine-8,3′-indol]-2′(1′H)-one] | 100 to 1000 nM | 243 to 246 °C | > 50% |  | > 300 nM |
| Cc1nc(-c2ccc3c(c2)OCC32C(=O)N(Cc3ccccn3)c3ccccc32)no1 (centres unmarked) [Example 11.85, 6-(5-methyl-1,2,4-oxadiazol-3-yl)-1′-(pyridin-2-ylmethyl)spiro[1-benzofuran-3,3′-indol]-2′(1′H)-one] |  | 147 to 148 °C | < 50% | 100 to 1000 nM | > 300 nM |
| O=C1N(CC2CN(Cc3ccccc3)CCO2)c2ccccc2C12COc1cc3c(cc12)CCO3 (centres unmarked) [Example 4.29, 1′-[(4-benzylmorpholin-2-yl)methyl]-5,6-dihydrospiro[benzo[1,2-b:5,4-b′]difuran-3,3′-indol]-2′(1′H)-one] | 1000 to 10000 nM | 65 to 70 °C | > 50% |  | > 300 nM |
| O=C1N(C[C@H]2CCCO2)c2cccc(-c3ccc(Oc4ccccc4)cc3)c2C12COc1cc3c(cc12)CCO3 (stereo partly drawn) [Example 16.6, 4′-(4-phenoxyphenyl)-1′-[(2R)-tetrahydrofuran-2-ylmethyl]-5,6-dihydrospiro[benzo[1,2-b:5,4-b′]difuran-3,3′-indol]-2′(1′H)-one] |  |  | < 50% | 100 to 1000 nM | < 300 nM |
| O=C1N(CC2COCCO2)c2ccccc2C12COc1cc3c(cc12)CCO3 (centres unmarked) [Example 4.8, 1′-(1,4-dioxan-2-ylmethyl)-5,6-dihydrospiro[benzo[1,2-b:5,4-b′]difuran-3,3′-indol]-2′(1′H)-one] | 1 to 100 nM |  | < 50% |  | > 300 nM |
| O=C1N(CC2CCOCC2)c2ccccc2C12COc1cc3c(cc12)CCO3 (centres unmarked) [Example 4.6, 1′-(tetrahydro-2H-pyran-4-ylmethyl)-5,6-dihydrospiro[benzo[1,2-b:5,4-b′]difuran-3,3′-indol]-2′(1′H)-one] | 100 to 1000 nM |  | < 50% |  | > 300 nM |
